For 9 compounds, GI50 and TGI results are on record in PubChem BioAssay (NCI).

Among the test systems are SF-268 CNS; BT-549 breast; OVCAR-3 ovarian; MDA-MB-231 breast; HOP-92 NSCLC; SK-MEL-5 melanoma; OVCAR-5 ovarian; RXF 393 renal; 786-0 renal; LOX IMVI melanoma.
Experiment in all cases: growth of human tumour cells (NCI), 48 h

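Compound exposure: 48 hours, 5 concentrations, 96-well plates. GI50 marks 50% less growth. TGI is the concentration that stops growth completely.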 Where only a bound is given, the exact number is not on record here.

Consider `COc1ccccc1CNCCCN1C(=O)c2ccc3c4c(ccc(c24)C1=O)C(=O)N(CCCNCCCCNCCCCN)C3=O`, for which the GI50 was 0.903 µM in the experiment on SF-268 CNS; 9.17 µM in the experiment on BT-549 breast; 0.475 µM with OVCAR-3 ovarian; 0.944 µM with MDA-MB-231 breast; 1.87 µM with HOP-92 NSCLC; 0.822 µM in the experiment with SK-MEL-5 melanoma. Moreover, the GI50 in the experiment on OVCAR-5 ovarian was 2.23 µM; in the experiment with RXF 393 renal it was 2.09 µM; with 786-0 renal, 2.25 µM; with LOX IMVI melanoma, 0.941 µM. The TGI with SF-268 CNS amounted to 6.99 µM; in the experiment with BT-549 breast, 24.5 µM; in the experiment on OVCAR-3 ovarian, 5.93 µM; with MDA-MB-231 breast it was 8.17 µM; with HOP-92 NSCLC it was 8.66 µM; in the experiment with SK-MEL-5 melanoma it was 2.23 µM. Also, the TGI with OVCAR-5 ovarian came out at 7 µM; in the experiment with RXF 393 renal, 10.1 µM; in the experiment with 786-0 renal, 14.4 µM; with LOX IMVI melanoma it was 4.76 µM.

For the compound `Nc1ncnc2c1c(-c1cccc(OCc3ccccc3)c1)cn2C1CC(CN2CCCC2)C1` (stereo not given), the GI50 is 1.94 µM in the experiment on SF-268 CNS; 2.02 µM in the experiment on BT-549 breast; 4.06 µM in the experiment on OVCAR-3 ovarian; 1.88 µM in the experiment with MDA-MB-231 breast; 0.0749 µM with HOP-92 NSCLC; 1.39 µM in the experiment on SK-MEL-5 melanoma. For the same compound, the GI50 in the experiment with OVCAR-5 ovarian is 0.705 µM; with RXF 393 renal, 1.21 µM; with 786-0 renal, 1.72 µM; with LOX IMVI melanoma, 1.52 µM. The TGI with SF-268 CNS was determined as 4.61 µM; in the experiment on BT-549 breast, 4.99 µM; in the experiment with OVCAR-3 ovarian, 14.9 µM; in the experiment on MDA-MB-231 breast, 4.54 µM; with HOP-92 NSCLC it was 0.867 µM; with SK-MEL-5 melanoma, 2.76 µM. For the same compound, the TGI in the experiment on OVCAR-5 ovarian turned out to be 6.82 µM; in the experiment on RXF 393 renal, 2.68 µM; in the experiment with 786-0 renal it was 3.34 µM; with LOX IMVI melanoma, 3 µM.

In the case of `O=C1Nc2cc(Cl)ccc2Oc2cc(Oc3ccccc3)ccc21`, the GI50 in the experiment with SF-268 CNS is 6.33 µM; with BT-549 breast, 8.97 µM; with OVCAR-3 ovarian, 2.53 µM; with MDA-MB-231 breast it was 5.5 µM; in the experiment with HOP-92 NSCLC, 1.32 µM; with SK-MEL-5 melanoma it was 3.13 µM. In addition, the GI50 with OVCAR-5 ovarian was 8.69 µM; with RXF 393 renal, 2.09 µM; in the experiment with 786-0 renal, 8.96 µM; with LOX IMVI melanoma it was 5.51 µM. For the same compound, the TGI with SF-268 CNS is 31.6 µM; with BT-549 breast, 51.1 µM; with OVCAR-3 ovarian, 7.32 µM; in the experiment with MDA-MB-231 breast it was 51.4 µM; with HOP-92 NSCLC, 9.41 µM; in the experiment on SK-MEL-5 melanoma it was 15.1 µM. For the same compound, the TGI in the experiment on OVCAR-5 ovarian was over 100 µM; in the experiment on RXF 393 renal it was 9.87 µM; with 786-0 renal, 42.2 µM; in the experiment with LOX IMVI melanoma, over 100 µM.

As to `O=C(/C=C/c1ccccn1)c1ccccc1O`, the GI50 is 2.53 µM with SF-268 CNS; 2.98 µM with BT-549 breast; 1.71 µM with OVCAR-3 ovarian; 2.8 µM with MDA-MB-231 breast; 2.1 µM in the experiment with HOP-92 NSCLC; 3.95 µM in the experiment on SK-MEL-5 melanoma. In addition, the GI50 with OVCAR-5 ovarian is 2.43 µM; in the experiment with RXF 393 renal, 1.75 µM; in the experiment on 786-0 renal it was 1.75 µM; in the experiment on LOX IMVI melanoma, 1.85 µM. Besides, the TGI in the experiment on SF-268 CNS was 7.02 µM; in the experiment with BT-549 breast, 9.71 µM; with OVCAR-3 ovarian, 3.5 µM; with MDA-MB-231 breast, 7.5 µM; in the experiment on HOP-92 NSCLC it was 4.91 µM; in the experiment with SK-MEL-5 melanoma it was 14.1 µM. Also, the TGI in the experiment with OVCAR-5 ovarian came to 6.8 µM; in the experiment on RXF 393 renal it was 3.25 µM; in the experiment on 786-0 renal, 3.14 µM; in the experiment with LOX IMVI melanoma it was 4.43 µM.

Regarding `O=C1Nc2ccccc2C1(c1ccc(O)c(F)c1)c1ccc(O)c(F)c1`, the GI50 is 16.1 µM with SF-268 CNS; 0.166 µM in the experiment with BT-549 breast; 0.295 µM in the experiment on OVCAR-3 ovarian; 13.4 µM with MDA-MB-231 breast; 2.36 µM in the experiment with HOP-92 NSCLC; 14.7 µM with SK-MEL-5 melanoma. In addition, the GI50 in the experiment on OVCAR-5 ovarian is 16.4 µM; with RXF 393 renal, 0.969 µM; in the experiment on 786-0 renal, 18.8 µM; with LOX IMVI melanoma, 0.53 µM. Also, the TGI was 62.1 µM in the experiment on SF-268 CNS; 0.593 µM in the experiment with BT-549 breast; 0.918 µM in the experiment on OVCAR-3 ovarian; 35.5 µM with MDA-MB-231 breast; 16.6 µM in the experiment with HOP-92 NSCLC; 29.9 µM in the experiment on SK-MEL-5 melanoma. Besides, the TGI in the experiment with OVCAR-5 ovarian was found to be 44.1 µM; in the experiment on RXF 393 renal, 10.5 µM; in the experiment on 786-0 renal, 44.1 µM; with LOX IMVI melanoma, 15.8 µM.

As for `O=C1CSC(=S)N1c1ccc(F)cc1F`, the TGI with SF-268 CNS was over 100 µM; in the experiment on BT-549 breast it was over 100 µM; in the experiment with OVCAR-3 ovarian it was over 100 µM; in the experiment on MDA-MB-231 breast it was over 100 µM; in the experiment on HOP-92 NSCLC, over 100 µM; in the experiment with SK-MEL-5 melanoma it was 54.6 µM. The TGI in the experiment on RXF 393 renal, in the experiment on 786-0 renal and in the experiment with LOX IMVI melanoma was over 100 µM in each case.

Consider `CN(C)CCCNC(=O)c1cc(NC(=O)CCNC(=O)c2ccc3c(c2)C(=O)c2ccccc2C3=O)cn1C`, for which the GI50 is 71 µM in the experiment on SF-268 CNS; over 100 µM with BT-549 breast; 33.2 µM with OVCAR-3 ovarian; over 100 µM with MDA-MB-231 breast; 58.9 µM with HOP-92 NSCLC; over 100 µM in the experiment with SK-MEL-5 melanoma. In addition, the GI50 in the experiment with OVCAR-5 ovarian, in the experiment with RXF 393 renal and in the experiment with 786-0 renal was over 100 µM throughout. Also, the TGI in the experiment with SF-268 CNS, in the experiment on BT-549 breast, with OVCAR-3 ovarian, in the experiment with MDA-MB-231 breast, in the experiment on HOP-92 NSCLC and with SK-MEL-5 melanoma was over 100 µM in each case. The TGI with OVCAR-5 ovarian, with RXF 393 renal and in the experiment on 786-0 renal was over 100 µM throughout.

For the compound `O=C(c1ccccn1)c1nnn2ccccc12`, the TGI in the experiment with SF-268 CNS, with BT-549 breast, in the experiment on OVCAR-3 ovarian, with MDA-MB-231 breast, with HOP-92 NSCLC and with SK-MEL-5 melanoma was over 100 µM each time. In addition, the TGI in the experiment on OVCAR-5 ovarian, with 786-0 renal and in the experiment on LOX IMVI melanoma was over 100 µM each time.

With `O=C(O)CN(CC(=O)O)Cc1cc2c(cc1O)Oc1cc(O)c(CN(CC(=O)O)CC(=O)O)cc1C21OC(=O)c2ccccc21`, the TGI in the experiment with SF-268 CNS, in the experiment on BT-549 breast, with OVCAR-3 ovarian, in the experiment on MDA-MB-231 breast, with HOP-92 NSCLC and in the experiment on SK-MEL-5 melanoma was over 100 µM throughout. For the same compound, the TGI with OVCAR-5 ovarian, in the experiment on 786-0 renal and with LOX IMVI melanoma was over 100 µM each time.
